This note sets out measurements from US7163940B2, “Pyrazolopyridinyl pyrimidine therapeutic compounds” (SmithKline Beecham Corporation, priority 2000, dated 2007).

Structures are written as SMILES.

One may read the IC50 as the concentration that gives 50% inhibition. Read a low IC50 as greater potency.

One assay has as its system HSV-1. Kind of assay: HSV-1 replication in infected Vero 76 cells, viral DNA hybridization capture assay. Conditions: HSV-1, Vero 76 cells, MOI=0.001, 40–48 hours incubation. Format: cell-based. The protocol: Vero 76 cells were maintained in MEM with Earle's salts, L-glutamine, 8% FBS (Hyclone, A-1111-L) and 100 units/mL Penicillin-100 μg/mL Streptomycin. For assay conditions, FBS was reduced to 2%. Cells are seeded into 96-well tissue culture plates at a density of 5×10^4 cells/well after being incubated for 45 min at 37° C. in the presence of HSV-1 or HSV-2 (MOI=0.001). Test compounds are added to the wells and the plates are incubated at 37° C. for 40–48 hours. Cell lysates are prepared as follows: media was removed and replaced with 150 μL/well 0.2 N NaOH with 1% Igepal CA 630 or NP-40. Plates were incubated up to 14 days at room temperature in a humidified chamber to prevent evaporation. • (b) Preparation of Detection DNA.
For the detection probe, a gel-purified, digoxigenin-labeled, […] PCR fragment of the HSV UL-15 sequence was utilized. PCR conditions included 0.5 μM primers, 180 μM dTP, 20 μM dUTP-digoxigenin (Boehringer Mannheim 1558706), 200 μM each of dATP, dCTP, and dGTP, 1×PCR Buffer II (Perkin Elmer), 2.5 mM MgCl2, 0.025 units/μL of AmpliTaq Gold polymerase (Perkin Elmer), and 5 ng of gel-purified HSV DNA per 100 μL. Extension conditions were 10 min at 95° C., followed by 30 cycles of 95° C. for 1 min, 55° C. for 30 sec, and 72° C. for 2 min. The amplification was completed with a 10-min incubation at 72° C. Primers were selected to amplify a 728 bp probe spanning a section of the HSV1 UL15 open reading frame (nucleotides 249–977). Single-stranded transcripts were purified with Promega M13 Wizard kits. The final product was mixed 1:1 with a mixture of 6 M GuSCN, 100 mM EDTA and 200 μg/mL herring sperm DNA and stored at 4° C. • (c) Preparation of Capture Plates.
The capture DNA plasmid (HSV UL13 region in pUC) was linearized by cutting with Xba I, denatured for 15 min at 95° C. and diluted immediately into Reacti-Bind DNA Coating Solution (Pierce, 17250, diluted 1:1 with TE buffer, pH 8) at 1 ng/μL 75 μL/well were added to Corning (#3922 or 9690) white 96-well plates and incubated at room temperature for at least 4 hrs before washing twice with 300 μL/well 0.2×SSC/0.05% Tween-20 (SSC/T buffer). The plates were then incubated overnight at room temperature with 150 μL/well 0.2 N NaOH, 1% IGEPAL and 10 μg/mL herring sperm DNA. • (d) Hybridization.
Twenty-seven (27) μL of cell lysate was combined with 45 μL of hybridization solution (final concentration: 3M GuSCN, 50 mM EDTA, 100 μg/ml salmon sperm DNA, 5× Denhardt's solution, 0.25×APE, and 5 ng of the digoxigenin-labeled detection probe). APE is 1.5 M NH4-acetate, 0.15 M ammonium phosphate, and 5 mM EDTA adjusted to pH 6.0. Mineral oil (50 μL) was added to prevent evaporation. The hybridization plates were incubated at 95° C. for 10 minutes to denature the DNA, then incubated at 42° C. overnight. The wells were washed 6× with 300 μL/well SSC/T buffer then incubated with 75 μL/well anti-digoxigenin-HRP-conjugated antibody (Boehringer Mannheim 1207733, 1:5000 in TE) for 30 min at room temperature. The wells were washed 6× with 300 μL/well with PBS/0.05% Tween-20 before 75 μL/well SuperSignal LBA substrate (Pierce) was added. The plates were incubated at room temperature for 30 minutes and chemiluminescence was measured in a Wallac Victor reader. • e) Results.
The following results were obtained for HSV-1.
Turning to `CCCCNc1nccc(-c2c(-c3ccc(F)cc3)nn3c(NCCC)cccc23)n1` [Example 55, 3-[2-(Butylamino)-4-pyrimidinyl]-2-(4-fluorophenyl)-N-propylpyrazolo[1,5-α]pyridin-7-amine], the IC50 was found to be 1.2 µM.

The same assay, now with this note: Human alphaherpesvirus 1, Vero 76, HSV-1, Vero 76 cells, MOI=0.001, 40–48 hours incubation.
The compound `C=CCNc1cccc2c(-c3ccnc(NCCCC)n3)c(-c3ccc(F)cc3)nn12` [Example 54, N-Allyl-3-[2-(butylamino)-4-pyrimidinyl]-2-(4-fluorophenyl)pyrazolo[1,5-α]pyridin-7-amine] came in with an IC50 of 0.5 µM.
`CN1CCCC1CCNc1cccc2c(-c3ccncc3)c(-c3ccc(F)cc3)nn12` (stereo not drawn) [Example 57, N-[2-(4-Fluorophenyl)-3-(4-pyridinyl)pyrazolo[1,5-α]pyridin-7-yl]-N-[2-(1-methyl-2-pyrrolidinyl)ethyl]amine] displayed a half-maximal inhibitory concentration (IC50) of 0.7 µM.
On the same count and under the same terms, then `CNc1cccc2c(-c3ccncc3)c(-c3ccc(F)cc3)nn12` [Example 58, 2-(4-Fluorophenyl)-N-methyl-3-(4-pyridinyl)pyrazolo[1,5-α]pyridin-7-amine], with 10.5 µM; and `CCN(CC)c1cccc2c(-c3ccncc3)c(-c3ccc(F)cc3)nn12` [Example 59, N,N-Diethyl-2-(4-fluorophenyl)-3-(4-pyridinyl)pyrazolo[1,5-α]pyridin-7-amine], with 4 µM.
Turning to `Fc1ccc(-c2nn3c(Br)cccc3c2-c2ccncc2)cc1` [Example 61, 7-Bromo-2-(4-fluorophenyl)-3-pyridin-4-ylpyrazolo[1,5-α]pyridine], the IC50 is more than 20 µM.
Compound `CCCCNc1cccc2c(-c3ccnc(OCC(F)(F)F)n3)c(-c3ccc(F)cc3)nn12` [Example 68, N-Butyl-2-(4-fluorophenyl)-3-[2-(2,2,2-trifluoroethoxy)pyrimidin-4-yl]pyrazolo[1,5-α]pyridin-7-amine] showed a concentration for half-maximal inhibition (IC50) of more than 20 µM.
Compound `Fc1ccc(-c2nn3c(N4CCCC4)cccc3c2-c2ccnc(N3CCCC3)n2)cc1` [Example 69, 2-(4-Fluorophenyl)-7-pyrrolidin-1-yl-3-(2-pyrrolidin-1-ylpyrimidin-4-yl)pyrazolo[1,5-α]pyridine] came in with an IC50 of 4.2 µM.
Still for that read-out and setting: next, `Cc1cc(-c2c(-c3ccc(F)cc3)nn3c(N)cccc23)nc(NC2CCCC2)n1` [Example 72, 3-[2-(Cyclopentylamino)-6-methylpyrimidin-4-yl]-2-(4-fluorophenyl)pyrazolo[1,5-α]pyridin-7-amine]: 4.4 µM; `Fc1ccc(-c2nn3c(Cl)cccc3c2-c2ccnc(-c3ccccc3)n2)cc1` [Example 73, 7-Chloro-2-(4-fluorophenyl)-3-(2-phenylpyrimidin-4-yl)pyrazolo[1,5-α]pyridine]: more than 20 µM; `O=C(NC1CCCC1)c1cc(-c2c(-c3ccc(F)cc3)nn3c(Cl)cccc23)nc(NC2CCCC2)n1` [Example 74, 6-[7-Chloro-2-(4-fluorophenyl)pyrazolo[1,5-α]pyridin-3-yl]-N-cyclopentyl-2-(cyclopentylamino)pyrimidine-4-carboxamide]: more than 20 µM.
The compound `O=C(NC1CCCC1)c1cc(-c2c(-c3ccc(F)cc3)nn3c(NC4CCCC4)cccc23)nc(NC2CCCC2)n1` [Example 75, N-Cyclopentyl-2-(cyclopentylamino)-6-[7-(cyclopentylamino)-2-(4-fluorophenyl)pyrazolo[1,5-α]pyridin-3-yl]pyrimidine-4-carboxamide] yielded an IC50 of more than 20 µM.
In turn, `Fc1ccc(-c2nn3c(Cl)cccc3c2-c2ccnc(C3CC3)n2)cc1` [Example 76, 7-Chloro-3-(2-cyclopropylpyrimidin-4-yl)-2-(4-fluorophenyl)pyrazolo[1,5-α]pyridine] showed an IC50 of more than 20 µM.
Compound `CC(C)c1nccc(-c2c(-c3ccc(F)cc3)nn3c(Cl)cccc23)n1` [Example 77, 7-Chloro-2-(4-fluorophenyl)-3-(2-isopropylpyrimidin-4-yl)pyrazolo[1,5-α]pyridine] showed an IC50 of more than 20 µM.
On the same count and under the same terms, next, `CCCCNc1nccc(-c2c(-c3ccc(F)cc3)nn3c(-c4ccco4)cccc23)n1` [Example 78, N-Butyl-4-[2-(4-fluorophenyl)-7-(2-furyl)pyrazolo[1,5-α]pyridin-3-yl]pyrimidin-2-amine]: 0.95 µM.
